Results taken from US20100173888A1 (Pfizer Inc, priority 2008, published 2010).

target: human recombinant H-PGDS (Homo sapiens, UniProt O60760); assay: Slightly modified fluorescence intensity h-PGDS TBA enzyme assay (1:40,000 enzyme, 40 second reaction, 1/2 log dilutions, top concentration typically 10 μM); type: biochemical; conditions: slightly modified assay: 1:40,000 human recombinant H-PGDS
Description: Fluoresecence Intensity h-PGDSTBA Enzyme Assay
Prostaglandin D Synthase (PGDS) converts the substrate prostaglandin H2 (PGH2) to prostaglandin D2. The depletion of PGH2 was measured via an Fe(II) reduction of the remaining PGH2 to malondialdehyde (MDA) and 12-HHT. The enzyme assay is based on the quantitative formation of a fluorescent complex from the non-fluorescent compounds MDA and 2-thiobarbituric acid (TBA), substantially as described in U.S. patent application publication US-2004/152148 by Lombardt.
Examples 6-8, 11a-16, 23, 26-47, 49-103, 105-113, 115-118 and 126-128 were tested in a slightly modified assay: The enzyme assay (30 μls during biological process) contained 100 mM Trizma pH 8.0, 100 μM MgCl2, 0.1 mg/ml IgG Rabbit serum, 5.0 μM PGH2 (Cayman; ethanol solution, #17020), 2.5 mM L-Glutathione (Sigma; reduced form #G4251), 1:40,000 human recombinant H-PGDS (from 1 mg/ml), 0.5% DMSO and inhibitor (varying concentration). 3 μls of diluted inhibitor (dissolved in DMSO) was plated into a 384-well assay plate followed by a 24 μl addition of an enzyme solution containing h-PGDS, Trizma, MgCl2, IgG and L-Glutathione. After pre-incubation of inhibitor and enzyme solution for 10 minutes at room temperature, the reaction was initiated with a 3 μl addition of substrate solution in 10 mM HCl. The reaction was terminated after 40 second by the addition of 3 μl stop buffer containing FeCl2 and citric acid. After addition of 45 μls of TBA plates were heated for one hour in a 70° C. oven. Plates were cooled at room temperature overnight and read on a plate reader the next day with excitation @ 530 nm and emission @ 560 nm. IC50' s of inhibitors were calculated with a 4-parameter fit using 11 inhibitor concentrations in duplicate with ½ log serial dilutions. Controls on each plate included no inhibitor (zero % effect) and an inhibitor 500-fold in excess of its' IC50 (100% effect). The highest inhibitor concentration tested was typically 10 μM.

Sequence of human recombinant H-PGDS (O60760 whole entry): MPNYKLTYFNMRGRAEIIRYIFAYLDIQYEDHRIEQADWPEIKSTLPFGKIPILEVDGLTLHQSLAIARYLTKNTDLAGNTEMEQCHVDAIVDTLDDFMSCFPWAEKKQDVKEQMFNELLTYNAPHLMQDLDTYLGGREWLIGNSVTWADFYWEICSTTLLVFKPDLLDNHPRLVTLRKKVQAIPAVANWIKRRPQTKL

Compound	IC50 [nM]
COCCN(C)C1CCC(NC(=O)c2ccc(-c3cccc(F)c3)nc2)CC1 (single isomer, unassigned) [Example 58, 6-(3-Fluorophenyl)-N-{4-[(2-methoxyethyl)(methyl)amino]cyclohexyl}nicotinamide]	307
COCCN(C)C1CCC(NC(=O)c2ccc(-c3cccc(F)c3)nc2)CC1 (single isomer, unassigned) [Example 59, 6-(3-Fluorophenyl)-N-{4-[(2-methoxyethyl)(methyl)amino]cyclohexyl}nicotinamide]	30.5
O=C(NC1CCC(N2CC[C@@H](O)C2)CC1)c1ccc(-c2cccc(F)c2)nc1 (single isomer, unassigned) [Example 60]	111
O=C(NC1CCC(N2CC[C@@H](O)C2)CC1)c1ccc(-c2cccc(F)c2)nc1 (single isomer, unassigned) [Example 61]	45
O=C(NC1CC1)c1ccc(-c2cccc(F)c2)nc1 [Example 6, N-Cyclopropyl-6-(3-fluoro-phenyl)-nicotinamide]	159
CN(C)C[C@H]1C[C@@H](NC(=O)c2ccc(-c3cccc(F)c3)nc2)C1 [Example 7]	292
O=C(N[C@H]1CCC[C@H]1C(=O)O)c1ccc(-c2cccc(F)c2)nc1 [Example 8]	1720
O=C(N[C@@H]1CC[C@H](C(=O)O)C1)c1ccc(-c2cccc(F)c2)nc1 [Example 11a, (1S,3R)-3-({[6-(3-Fluorophenyl)pyridin-3-yl]carbonyl}amino)cyclopentanecarboxylic acid]	125
N[C@H]1CCN(C(=O)[C@H]2CC[C@@H](NC(=O)c3ccc(-c4cccc(F)c4)nc3)C2)C1 [Example 16, N-[(1R,3S)-3-{[(3S)-3-Aminopyrrolidin-1-yl]carbonyl}cyclopentyl]-6-(3-fluorophenyl)nicotinamide]	29.1
NC1CCC(NC(=O)c2ccc(-c3cccc(F)c3)nc2)CC1 (stereo not shown) [Example 44, N-(4-Aminocyclohexyl)-6-(3-fluorophenyl)nicotinamide]	67.5
O=C(NC1CCC(n2ccnc2)CC1)c1ccc(-c2cccc(F)c2)nc1 (stereo not shown) [Example 47, 6-(3-Fluorophenyl)-N-[4-(1H-imidazol-1-yl)cyclohexyl]nicotinamide]	23
O=C(NC1CCC(N2CCC(O)CC2)CC1)c1ccc(-c2cccc(F)c2)nc1 (stereo not shown) [Example 62, 6-(3-Fluorophenyl)-N-[4-(4-hydroxypiperidin-1-yl)cyclohexyl]nicotinamide]	137
O=C(N[C@H]1CC[C@@H](C(=O)O)CC1)c1ccc(-c2cccc(F)c2)nc1 [Example 66, cis-4-({[6-(3-Fluorophenyl)pyridin-3-yl]carbonyl}amino)cyclohexanecarboxylic acid]	97.4
CN(C)C[C@H]1CC[C@@H](NC(=O)c2ccc(-c3cccc(F)c3)nc2)CC1 [Example 67, N-{cis-4-[(Dimethylamino)methyl]cyclohexyl}-6-(3-fluorophenyl)nicotinamide]	118
O=C(N[C@H]1CC[C@@H](C(=O)NCc2ccccc2)CC1)c1ccc(-c2cccc(F)c2)nc1 [Example 71, N-[cis-4-(Benzylcarbamoyl)cyclohexyl]-6-(3-fluorophenyl)nicotinamide]	22
CN1CCN(C(=O)[C@H]2CC[C@@H](NC(=O)c3ccc(-c4cccc(F)c4)nc3)CC2)CC1 [Example 72, 6-(3-Fluorophenyl)-N-{cis-4-[(4-methylpiperazin-1-yl)carbonyl]cyclohexyl}nicotinamide]	23.2
CNCCN(C)C(=O)[C@H]1CC[C@@H](NC(=O)c2ccc(-c3cccc(F)c3)nc2)CC1 [Example 76, 6-(3-Fluorophenyl)-N-(cis-4-{methyl[2-(methylamino)ethyl]carbamoyl}cyclohexyl)nicotinamide]	31.8

Stronger by IC50, values ahead:

IC50 [nM]	Compound
13	O=C(NC1CCC(c2ncc[nH]2)CC1)c1ccc(-c2cccc(F)c2)nc1 (single isomer, unassigned) [Example 63, 6-(3-Fluorophenyl)-N-[4-(1H-imidazol-2-yl)cyclohexyl]nicotinamide]
6.2	O=C(NC1CCC(c2ncc[nH]2)CC1)c1ccc(-c2cccc(F)c2)nc1 (single isomer, unassigned) [Example 64, 6-(3-Fluorophenyl)-N-[4-(1H-imidazol-2-yl)cyclohexyl]nicotinamide]
13.7	O=C(N[C@H]1CC[C@@H](C(=O)O)C1)c1ccc(-c2cccc(F)c2)nc1 [Example 11b, (1R,3S)-3-({[6-(3-Fluorophenyl)pyridin-3-yl]carbonyl}amino)cyclopentanecarboxylic acid]
11.2	CN1CCN(C(=O)[C@H]2CC[C@@H](NC(=O)c3ccc(-c4cccc(F)c4)nc3)C2)CC1 [Example 12, 6-(3-Fluorophenyl)-N-{(1R,3S)-3-[(4-methylpiperazin-1-yl)carbonyl]cyclopentyl}nicotinamide]
16.5	O=C(N[C@@H]1CC[C@H](C(=O)N2CCNCC2)C1)c1ccc(-c2cccc(F)c2)nc1 [Example 13, 6-(3-Fluorophenyl)-N-[(1R,3S)-3-(piperazin-1-ylcarbonyl)cyclopentyl]nicotinamide]
7.48	O=C(N[C@@H]1CC[C@H](C(=O)N2CCC(O)CC2)C1)c1ccc(-c2cccc(F)c2)nc1 [Example 14, 6-(3-Fluorophenyl)-N-{(1R,3S)-3-[(4-hydroxypiperidin-1-yl)carbonyl]cyclopentyl}nicotinamide]
10.3	O=C(N[C@@H]1CC[C@H](C(=O)N2CC[C@H](O)C2)C1)c1ccc(-c2cccc(F)c2)nc1 [Example 15, 6-(3-Fluorophenyl)-N-[(1R,3S)-3-{[(3S)-3-hydroxypyrrolidin-1-yl]carbonyl}cyclopentyl]nicotinamide]
10.5	CSc1nccn1C1CCC(NC(=O)c2ccc(-c3cccc(F)c3)nc2)CC1 (stereo not shown) [Example 45, 6-(3-Fluorophenyl)-N-{4-[2-(methylthio)-1H-imidazol-1-yl]cyclohexyl}nicotinamide]
10.7	CC(=O)NC1CCC(NC(=O)c2ccc(-c3cccc(F)c3)nc2)CC1 (stereo not shown) [Example 46, N-(4-Acetamidocyclohexyl)-6-(3-fluorophenyl)nicotinamide]
9.26	O=C(NC1CCC(N2CCCOCC2)CC1)c1ccc(-c2cccc(F)c2)nc1 (stereo not shown) [Example 53, 6-(3-Fluorophenyl)-N-[4-(1,4-oxazepan-4-yl)cyclohexyl]nicotinamide]
8.3	COCCNC(=O)[C@@H]1CCC[C@H](NC(=O)c2ccc(-c3cccc(F)c3)nc2)C1 [Example 64A, 6-(3-fluorophenyl)-N-{(1S,3R)-3-[(2-methoxyethyl)carbamoyl]cyclohexyl}nicotinamide]
15.7	O=C(N[C@H]1CC[C@@H](O)CC1)c1ccc(-c2cccc(F)c2)nc1 [Example 65, 6-(3-Fluorophenyl)-N-(cis-4-hydroxycyclohexyl)nicotinamide]
13.2	O=C(N[C@H]1CC[C@@H](C(=O)N2CCC(O)CC2)CC1)c1ccc(-c2cccc(F)c2)nc1 [Example 68, 6-(3-Fluorophenyl)-N-{cis-4-[(4-hydroxypiperidin-1-yl)carbonyl]cyclohexyl}nicotinamide]
14.7	O=C(N[C@H]1CC[C@@H](C(=O)NC2CCCC2)CC1)c1ccc(-c2cccc(F)c2)nc1 [Example 69, N-[cis-4-(Cyclopentylcarbmoyl)cyclohexyl]-6-(3-fluorophenyl)nicotinamide]
4.62	O=C(N[C@H]1CC[C@@H](C(=O)N2CCCC2)CC1)c1ccc(-c2cccc(F)c2)nc1 [Example 70, 6-(3-Fluorophenyl)-N-[cis-4-(pyrrolidin-1-ylcarbonyl)cyclohexyl]nicotinamide]
14	O=C(N[C@H]1CC[C@@H](C(=O)N2CCOCC2)CC1)c1ccc(-c2cccc(F)c2)nc1 [Example 73, 6-(3-Fluorophenyl)-N-[cis-4-(morpholin-4-ylcarbonyl)cyclohexyl]nicotinamide]
10.8	CN(C)C(=O)[C@H]1CC[C@@H](NC(=O)c2ccc(-c3cccc(F)c3)nc2)CC1 [Example 74, N-[cis-4-(Dimethylcarbamoyl)cyclohexyl]-6-(3-fluorophenyl)nicotinamide]
20.6	CC(C)(C)NC(=O)[C@H]1CC[C@@H](NC(=O)c2ccc(-c3cccc(F)c3)nc2)CC1 [Example 75, N-[cis-4-(tert-Butylcarbamoyl)cyclohexyl]-6-(3-fluorophenyl)nicotinamide]
6.42	CCN(C)C(=O)[C@H]1CC[C@@H](NC(=O)c2ccc(-c3cccc(F)c3)nc2)CC1 [Example 77, N-{cis-4-[Ethyl(methyl)carbamoyl]cyclohexyl}-6-(3-fluorophenyl)nicotinamide]
7.89	CN(C)C(=O)C[C@H]1CC[C@@H](NC(=O)c2ccc(-c3cccc(F)c3)nc2)CC1 [Example 78]
